Measured values as given in ChEMBL document CHEMBL4811230, “In Planta Discovery and Chemical Synthesis of Bracelet Cystine Knot Peptides from Rinorea bengalensis” (J Nat Prod, 2021).
Starred links: 1 amine or outer side, 2 acyl side, 3 side chain; linkers in the order of their positions; H or OH if unused. Positions of bridges follow the written chain, without caps; N, C: chain ends. Non-standard residues stand in square brackets, D forms with d. Residues, ends and D or L forms follow the SMILES beside them. X1 = CN[C@@H](C)[C@H](N[*:1])C(=O)[*:2]

What was measured:
PC-3 = assay: Cytotoxicity against human PC-3 cells assessed as decrease in cell viability measured after 24 hrs by MTT assay; type: functional
MDA-MB-231 = assay: Cytotoxicity against human MDA-MB-231 cells assessed as decrease in cell viability measured after 24 hrs by MTT assay; type: functional
[1] = Cytotoxicity against HUVEC cells assessed as decrease in cell viability measured after 24 hrs by MTT assay; type: cell-based; conditions: human
[2] = Hemolytic activity against human RBC incubated for 1 hr; type: ADME, cell-based, Erythrocyte; conditions: red blood cells (erythrocytes), read-out: CC50

CC[C@H](C)[C@@H]1NC(=O)[C@H](C)NC(=O)[C@H](CO)NC(=O)[C@H](CO)NC(=O)[C@H]([C@@H](C)CC)NC(=O)[C@@H]2CSSC[C@@H]3NC(=O)[C@H](C(C)C)NC(=O)[C@H](CCCCN)NC(=O)[C@H](CO)NC(=O)[C@H](CCCCN)NC(=O)[C@@H]4CSSC[C@H](NC(=O)[C@H](CO)NC(=O)[C@H](CCC(=O)O)NC(=O)CNC(=O)[C@H](CSSC[C@H](NC(=O)CNC1=O)C(=O)N[C@@H](CO)C(=O)N4)NC(=O)[C@@H]1CCCN1C(=O)[C@H]([C@@H](C)CC)NC(=O)CNC(=O)[C@H](CC(N)=O)NC(=O)[C@H](CCCNC(=N)N)NC(=O)[C@H](Cc1ccc(O)cc1)NC3=O)C(=O)N[C@@H](C(C)C)C(=O)N[C@@H](Cc1c[nH]c3ccccc13)C(=O)N[C@@H]([C@@H](C)CC)C(=O)N1CCC[C@H]1C(=O)N2 (cyclo(AIGCSCKSKVCYRNGIPCGESCVWIPCISS); disulfide 4-18, 6-22, 11-27)
CC50 (PC-3): 600 nM
CC50 (MDA-MB-231): 1100 nM
CC50 at 24 h [1]: 500 nM
HC50 at 1 h [2]: 18.5 µM

CC(C)C[C@@H]1NC(=O)CNC(=O)[C@H](CC(N)=O)NC(=O)[C@H](CCCNC(=N)N)NC(=O)[C@H]([C@@H](C)O)NC(=O)[C@@H]2CSSC[C@@H]3NC(=O)[C@H]([C@@H](C)O)NC(=O)CNC(=O)CNC(=O)[C@H](C(C)C)NC(=O)[C@@H]4CSSC[C@H](NC(=O)[C@H]([C@@H](C)O)NC(=O)[C@H](CSSC[C@H](NC(=O)[C@H](C(C)C)NC(=O)[C@@H]5CCCN5C1=O)C(=O)NCC(=O)N[C@@H](CCC(=O)O)C(=O)N[C@@H]([C@@H](C)O)C(=O)N4)NC(=O)CNC(=O)[C@@H]1CCCN1C(=O)[C@H]([C@@H](C)O)NC(=O)[C@H](CC(N)=O)NC3=O)C(=O)N[C@@H](CO)C(=O)N[C@@H](Cc1c[nH]c3ccccc13)C(=O)N1CCC[C@H]1C(=O)N[C@@H](C(C)C)C(=O)N2
CC50 (PC-3): 3100 nM
CC50 (MDA-MB-231): 5100 nM

CC[C@H](C)[C@@H]1NC(=O)[C@H](CCCNC(=N)N)NC(=O)CNC(=O)[C@H](CCCCN)NC(=O)[C@@H]2CSSC[C@@H]3NC(=O)[C@H](CO)NC(=O)[C@H](CCC(=O)O)NC(=O)CNC(=O)[C@@H]4CSSC[C@H](NC(=O)CNC(=O)[C@H]([C@@H](C)CC)NC(=O)[C@H](C(C)C)NC(=O)[C@H](CO)NC(=O)[C@H]([C@@H](C)O)NC(=O)[C@H](Cc5ccccc5)NC(=O)[C@H](CSSC[C@H](NC1=O)C(=O)N[C@@H](C(C)C)C(=O)N[C@@H](CCCNC(=N)N)C(=O)N[C@@H](Cc1ccccc1)C(=O)N[C@@H](CCC(N)=O)C(=O)N4)NC(=O)[C@H](Cc1ccc(O)cc1)NC(=O)[C@H]([C@@H](C)O)NC(=O)[C@H]([C@@H](C)O)NC(=O)[C@H]([C@@H](C)CC)NC(=O)[C@H](CCSC)NC(=O)CNC3=O)C(=O)N[C@@H](CO)C(=O)N2 (cyclo(CFTSVIGCSCKGRICVRFQCGESCGMITTY); disulfide 1-15, 8-20, 10-24) [listing 1 of 2 here]
CC50 (PC-3): 1300 nM
CC50 (MDA-MB-231): 4100 nM

CC[C@H](C)[C@@H]1NC(=O)[C@@H]2CSSC[C@@H]3NC(=O)[C@H](C(C)C)NC(=O)[C@H](CCCCN)NC(=O)[C@H](CC(N)=O)NC(=O)[C@H](CCCCN)NC(=O)[C@@H]4CSSC[C@H](NC(=O)[C@H](CO)NC(=O)[C@H](CCC(=O)O)NC(=O)CNC(=O)[C@H](CSSC[C@H](NC(=O)CNC(=O)[C@H]([C@@H](C)CC)NC(=O)[C@H](C(C)C)NC(=O)[C@H](CO)NC(=O)[C@H](CO)NC1=O)C(=O)N[C@@H](CO)C(=O)N4)NC(=O)[C@@H]1CCCN1C(=O)[C@H]([C@@H](C)CC)NC(=O)[C@H](C)NC(=O)[C@H](CCCNC(=N)N)NC(=O)[C@H](Cc1ccc(O)cc1)NC3=O)C(=O)N[C@@H](C(C)C)C(=O)N[C@@H](Cc1ccc(O)cc1)C(=O)N[C@@H]([C@@H](C)CC)C(=O)N1CCC[C@H]1C(=O)N2 (cyclo(AIPCGESCVYIPCISSVIGCSCKNKVCYR); disulfide 4-20, 8-22, 13-27)
CC50 (PC-3): 500 nM
CC50 (MDA-MB-231): 800 nM
HC50 at 1 h [2]: 8.8 µM

CC[C@H](C)[C@@H]1NC(=O)[C@H](CCCNC(=N)N)NC(=O)CNC(=O)[C@H](CCCCN)NC(=O)[C@@H]2CSSC[C@@H]3NC(=O)[C@H](CO)NC(=O)[C@H](CCC(=O)O)NC(=O)CNC(=O)[C@@H]4CSSC[C@H](NC(=O)CNC(=O)[C@H]([C@@H](C)CC)NC(=O)[C@H](C(C)C)NC(=O)[C@H](CO)NC(=O)[C@H]([C@@H](C)O)NC(=O)[C@H](Cc5ccccc5)NC(=O)[C@H](CSSC[C@H](NC1=O)C(=O)N[C@@H](C(C)C)C(=O)N[C@@H](CCCNC(=N)N)C(=O)N[C@@H](Cc1ccccc1)C(=O)N[C@@H](CCC(N)=O)C(=O)N4)NC(=O)[C@H](Cc1ccc(O)cc1)NC(=O)[C@H]([C@@H](C)O)NC(=O)[C@H]([C@@H](C)O)NC(=O)[C@H]([C@@H](C)CC)NC(=O)[C@H](CCSC)NC(=O)CNC3=O)C(=O)N[C@@H](CO)C(=O)N2 (cyclo(CFTSVIGCSCKGRICVRFQCGESCGMITTY); disulfide 1-15, 8-20, 10-24) [listing 2 of 2 here]
CC50 at 24 h [1]: 1200 nM
HC50 at 1 h [2]: > 33 µM

CC[C@H](C)[C@@H]1NC(=O)[C@@H]2CSSC[C@@H]3NC(=O)[C@H](C(C)C)NC(=O)[C@H](CCCCN)NC(=O)[C@H](CC(N)=O)NC(=O)[C@H](CCC(N)=O)NC(=O)[C@@H]4CSSC[C@H](NC(=O)[C@H](CO)NC(=O)[C@H](CCC(=O)O)NC(=O)CNC(=O)[C@H](CSSC[C@H](NC(=O)CNC(=O)[C@H]([C@H](C)NC)NC(=O)[C@H](C(C)C)NC(=O)[C@H](C)NC(=O)[C@H](CO)NC1=O)C(=O)N[C@@H](CCCCN)C(=O)N4)NC(=O)[C@@H]1CCCN1C(=O)[C@H]([C@@H](C)CC)NC(=O)[C@H](C)NC(=O)[C@H](CCCNC(=N)N)NC(=O)[C@H](Cc1ccc(O)cc1)NC3=O)C(=O)N[C@@H](C(C)C)C(=O)N[C@@H](Cc1ccc(O)cc1)C(=O)N[C@@H]([C@@H](C)CC)C(=O)N1CCC[C@H]1C(=O)N2 (cyclo(AIPCGESCVYIPCISAV[X1]GCKCQNKVCYR); disulfide 4-20, 8-22, 13-27) [listing 1 of 2 here]
CC50 (PC-3): 1200 nM
CC50 (MDA-MB-231): 2300 nM

CC[C@H](C)[C@@H]1NC(=O)[C@H](CC(C)C)NC(=O)[C@H](C)NC(=O)[C@H]([C@H](C)O)NC(=O)[C@H](C(C)C)NC(=O)[C@H]([C@H](C)O)NC(=O)[C@H](CS)NC(=O)[C@@H]2CCCN2C1=O
CC50 (PC-3): 700 nM
CC50 (MDA-MB-231): 1500 nM
CC50 at 24 h [1]: 900 nM
HC50 at 1 h [2]: 21.9 µM

CC[C@H](C)[C@@H]1NC(=O)[C@@H]2CSSC[C@@H]3NC(=O)[C@H](C(C)C)NC(=O)[C@H](CCCCN)NC(=O)[C@H](CC(=O)NN)NC(=O)[C@H](CCCCN)NC(=O)[C@@H]4CSSC[C@H](NC(=O)[C@H](CO)NC(=O)[C@H](CCC(=O)O)NC(=O)CNC(=O)[C@H](CSSC[C@H](NC(=O)CNC(=O)[C@H]([C@@H](C)CC)NC(=O)[C@H](C(C)C)NC(=O)[C@H](CCC(N)=O)NC(=O)[C@H](CO)NC1=O)C(=O)N[C@@H](CCCCN)C(=O)N4)NC(=O)[C@@H]1CCCN1C(=O)[C@H]([C@@H](C)CC)NC(=O)[C@H](C)NC(=O)[C@H](CCCNC(=N)N)NC(=O)[C@H](Cc1ccc(O)cc1)NC3=O)C(=O)N[C@@H](C(C)C)C(=O)N[C@@H](Cc1ccc(O)cc1)C(=O)N[C@@H]([C@@H](C)CC)C(=O)N1CCC[C@H]1C(=O)N2
CC50 (PC-3): 1500 nM
CC50 (MDA-MB-231): 2200 nM
CC50 at 24 h [1]: 1000 nM

CC[C@H](C)[C@@H]1CC(=O)[C@H](C)NC(=O)[C@H](CCCNC(=N)N)NC(=O)[C@H](Cc2ccc(O)cc2)NC(=O)[C@@H]2CSSC[C@@H]3NC(=O)[C@@H]4CCCN4C(=O)[C@H]([C@@H](C)CC)NC(=O)[C@H](Cc4ccc(O)cc4)NC(=O)[C@H](C(C)C)NC(=O)[C@@H]4CSSC[C@H](NC(=O)[C@H](CO)NC(=O)[C@H](CSSC[C@H](NC(=O)[C@@H]5CCCN5C1=O)C(=O)NCC(=O)N[C@@H](CCC(=O)O)C(=O)N[C@@H](CO)C(=O)N4)NC(=O)CNC(=O)[C@H]([C@@H](C)CC)NC(=O)[C@H](C)NC(=O)[C@H](C)NC(=O)[C@H]([C@H](C)O)NC(=O)[C@H](CC(C)C)NC3=O)C(=O)N[C@@H](CCCCN)C(=O)N[C@@H](CC(N)=O)C(=O)N[C@@H](CCCCN)C(=O)N[C@@H](C(C)C)C(=O)N2
CC50 (PC-3): 300 nM
CC50 (MDA-MB-231): 600 nM
CC50 at 24 h [1]: 200 nM

CC[C@H](C)[C@@H]1NC(=O)[C@@H]2CSSC[C@@H]3NC(=O)[C@H](C(C)C)NC(=O)[C@H](CCCCN)NC(=O)[C@H](CC(N)=O)NC(=O)[C@H](CCC(N)=O)NC(=O)[C@@H]4CSSC[C@H](NC(=O)[C@H](CO)NC(=O)[C@H](CCC(=O)O)NC(=O)CNC(=O)[C@H](CSSC[C@H](NC(=O)CNC(=O)[C@H]([C@H](C)NC)NC(=O)[C@H](C(C)C)NC(=O)[C@H](C)NC(=O)[C@H](CO)NC1=O)C(=O)N[C@@H](CCCCN)C(=O)N4)NC(=O)[C@@H]1CCCN1C(=O)[C@H]([C@@H](C)CC)NC(=O)[C@H](C)NC(=O)[C@H](CCCNC(=N)N)NC(=O)[C@H](Cc1ccc(O)cc1)NC3=O)C(=O)N[C@@H](C(C)C)C(=O)N[C@@H](Cc1ccc(O)cc1)C(=O)N[C@@H]([C@@H](C)CC)C(=O)N1CCC[C@H]1C(=O)N2 (cyclo(AIPCGESCVYIPCISAV[X1]GCKCQNKVCYR); disulfide 4-20, 8-22, 13-27) [listing 2 of 2 here]
HC50 at 1 h [2]: 20.1 µM
